# Measurements from ChEMBL document CHEMBL1201862, “PubChem BioAssay data set” (2004).
# Calls of active or inactive are those of the source.
# Columns and labels:
# [1] = molecular target: Cytochrome P450 2C19 (Homo sapiens, UniProt P33261); assay: Cytochrome panel assay with activity outcomes. Panel member name: p450-cyp2c19 Compounds with AC50 equal or less than 10 uM are considered active; type: functional; conditions: read-out: AC50
# [2] = molecular target: T1, Cytochrome P450 1A2 (Homo sapiens, UniProt P05177)
# T1 sequence (P05177 whole entry): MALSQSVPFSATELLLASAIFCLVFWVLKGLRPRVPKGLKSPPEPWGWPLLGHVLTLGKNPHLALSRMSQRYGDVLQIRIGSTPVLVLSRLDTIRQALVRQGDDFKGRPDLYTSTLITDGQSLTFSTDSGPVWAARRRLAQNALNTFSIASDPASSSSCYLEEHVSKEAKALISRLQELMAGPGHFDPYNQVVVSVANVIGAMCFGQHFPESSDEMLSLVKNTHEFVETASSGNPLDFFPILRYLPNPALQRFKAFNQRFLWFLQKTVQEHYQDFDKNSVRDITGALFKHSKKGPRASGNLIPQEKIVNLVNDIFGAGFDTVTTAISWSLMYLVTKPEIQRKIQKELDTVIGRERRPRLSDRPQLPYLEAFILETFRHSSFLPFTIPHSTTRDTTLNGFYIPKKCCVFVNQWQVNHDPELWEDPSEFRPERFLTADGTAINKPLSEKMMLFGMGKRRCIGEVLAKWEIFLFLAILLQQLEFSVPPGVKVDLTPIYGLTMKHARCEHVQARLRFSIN
# [3] = molecular target: Cytochrome P450 2C9 (Homo sapiens, UniProt P11712)
# [4] = viability of uninfected HEp-2 cells – cell-based, HTS, cytotoxicity control for RSV inhibitor project, dose response (AID 2410); type: functional; conditions: human respiratory syncytial virus
# [5] = molecular target: T2, Heat shock factor protein 1 (Mus musculus, UniProt P38532); assay: decrease of HSF1-responsive luciferase luminescence – cell-based, NIH3T3, dose retest, confirmation (AID 2382); type: functional;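 note: NIH3T3 fibroblasts with HSF1-driven luciferase reporter stressed by proteasome inhibitor MG132; luminescence from HSF1-driven luciferase expression after 8 hours of MG132 stress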
# T2 sequence (P38532 whole entry): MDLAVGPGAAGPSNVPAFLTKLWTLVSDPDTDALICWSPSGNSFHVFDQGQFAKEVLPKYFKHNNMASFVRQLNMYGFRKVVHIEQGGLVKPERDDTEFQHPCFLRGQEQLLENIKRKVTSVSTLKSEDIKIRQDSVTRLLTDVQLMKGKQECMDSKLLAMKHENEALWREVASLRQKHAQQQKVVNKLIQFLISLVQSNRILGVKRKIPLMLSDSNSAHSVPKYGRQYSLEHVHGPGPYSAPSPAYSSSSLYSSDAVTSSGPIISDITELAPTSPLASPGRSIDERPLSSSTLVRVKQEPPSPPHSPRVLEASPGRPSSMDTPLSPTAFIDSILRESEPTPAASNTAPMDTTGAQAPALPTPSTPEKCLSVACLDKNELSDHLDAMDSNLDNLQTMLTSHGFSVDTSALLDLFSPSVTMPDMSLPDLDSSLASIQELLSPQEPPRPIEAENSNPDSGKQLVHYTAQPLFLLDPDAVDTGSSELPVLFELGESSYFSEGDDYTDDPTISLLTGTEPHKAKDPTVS
# [6] = NIH-3T3 fibroblast cytotoxicity, dose response, cytotoxicity control, cell-based, fluorescence, Alamar Blue, secondary assay (AID 2327); type: functional;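 note: NIH-3T3 mouse fibroblasts cultured with fluconazole at 8 µg/mL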
# [7] = fluconazole-exposed Candida albicans growth modulators – fluorescence, retest, confirmation (AID 2467); type: functional, cell-based
# [8] = molecular target: Cytochrome P450 3A4 (Homo sapiens, UniProt P08684);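 note: CYP3A4 tested as one member of a cytochrome P450 panel screen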
# [9] = Trypanosoma cruzi growth suppression in host cells – NIH3T3 host cells, beta-gal luminescence, confirmation (AID 2044); type: functional, cell-based;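 note: intracellular parasites grown in NIH/3T3 mouse fibroblasts as host cells; luminescent beta-galactosidase reporter signal from transgenic T. cruzi replicating inside host cells; inhibitors lower the luminescence signal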
# [10] = NIH3T3 cell viability loss – ATP luminescence, mouse fibroblasts, counter-screen, dose response (AID 2010); type: functional, cell-based;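 note: cells exposed to compound for about 90 hours before reading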
# [11] = test system: INS1; assay: INS-1E survival protection against cytokine death – cell-based, luminescence, retest, dose response (AID 449756); type: functional; conditions: Rattus norvegicus;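 note: cell death triggered by IL-1 beta plus TNF-alpha plus IFN-gamma mixture; protective hits raise ATP signal compared with cytokine alone wells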
# Cytochrome P450 2C9, sequence (P11712 whole entry): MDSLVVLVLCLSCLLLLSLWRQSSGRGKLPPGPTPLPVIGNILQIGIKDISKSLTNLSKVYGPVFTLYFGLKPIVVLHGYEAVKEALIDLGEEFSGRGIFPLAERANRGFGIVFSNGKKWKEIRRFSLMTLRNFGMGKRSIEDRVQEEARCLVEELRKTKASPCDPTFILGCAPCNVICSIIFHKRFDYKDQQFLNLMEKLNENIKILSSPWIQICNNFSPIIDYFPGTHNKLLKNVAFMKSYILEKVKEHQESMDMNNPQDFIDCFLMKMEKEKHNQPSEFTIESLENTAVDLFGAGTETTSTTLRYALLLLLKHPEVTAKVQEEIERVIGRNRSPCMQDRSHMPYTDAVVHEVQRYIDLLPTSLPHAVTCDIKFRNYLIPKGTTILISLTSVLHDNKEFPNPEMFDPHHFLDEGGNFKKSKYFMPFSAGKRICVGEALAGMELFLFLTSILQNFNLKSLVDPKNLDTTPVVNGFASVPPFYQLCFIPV
# Cytochrome P450 2C19, sequence (P33261 whole entry): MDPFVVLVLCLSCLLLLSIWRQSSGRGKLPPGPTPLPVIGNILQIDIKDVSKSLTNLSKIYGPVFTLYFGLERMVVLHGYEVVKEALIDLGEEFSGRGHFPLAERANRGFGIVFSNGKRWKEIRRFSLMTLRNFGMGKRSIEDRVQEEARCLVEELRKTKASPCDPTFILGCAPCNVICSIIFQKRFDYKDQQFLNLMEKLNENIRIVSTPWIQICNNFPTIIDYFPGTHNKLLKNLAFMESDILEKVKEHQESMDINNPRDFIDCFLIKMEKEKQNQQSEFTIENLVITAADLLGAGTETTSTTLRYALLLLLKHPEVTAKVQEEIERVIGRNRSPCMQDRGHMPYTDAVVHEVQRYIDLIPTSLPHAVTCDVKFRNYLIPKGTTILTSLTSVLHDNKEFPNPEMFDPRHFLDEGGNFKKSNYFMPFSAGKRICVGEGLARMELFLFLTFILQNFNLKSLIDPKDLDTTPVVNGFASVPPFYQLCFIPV
# Cytochrome P450 3A4, sequence (P08684 whole entry): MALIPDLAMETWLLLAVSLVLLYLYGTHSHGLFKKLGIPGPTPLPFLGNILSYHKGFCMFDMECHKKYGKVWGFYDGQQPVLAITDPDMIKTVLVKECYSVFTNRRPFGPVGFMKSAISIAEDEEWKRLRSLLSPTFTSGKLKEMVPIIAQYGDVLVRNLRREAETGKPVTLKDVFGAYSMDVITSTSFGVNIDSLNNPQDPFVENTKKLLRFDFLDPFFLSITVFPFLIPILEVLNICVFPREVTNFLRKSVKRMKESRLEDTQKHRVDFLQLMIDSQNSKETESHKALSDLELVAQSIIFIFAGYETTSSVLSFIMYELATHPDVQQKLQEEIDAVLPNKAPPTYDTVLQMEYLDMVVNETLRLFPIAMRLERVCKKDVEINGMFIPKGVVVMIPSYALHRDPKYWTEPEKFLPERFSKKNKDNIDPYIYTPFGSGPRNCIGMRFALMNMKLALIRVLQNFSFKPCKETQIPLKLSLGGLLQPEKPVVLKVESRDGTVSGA
smiles,measurement,setting,value
CCCC[C@H]1C(=O)N(c2ccccc2)N(c2ccc(O)cc2)C1=O,AC50,[1],15.8 µM (inconclusive)
same,AC50,[2],0.001 µM (inconclusive)
same,AC50,[3],12.6 µM (inconclusive)
Cc1cccc(-c2nc(C#N)c(NCc3ccco3)o2)c1,CC50,[4],42.9 µM (active)
CC(C)c1nc(SCc2c(F)cccc2Cl)c2c(=O)n(C)c(=O)n(C)c2n1,CC50,[4],7.44 µM (active)
same,EC50,[5],> 195 µM (not active)
Cc1ccc(-c2c[n+](CC(=O)N3c4ccccc4Sc4ccccc43)c3n2CCC3)cc1,EC50,[6],> 150 µM (inactive)
same,EC50,[7],2.77 µM (active)
CCSc1c(C(=O)NC)ccc2c1C(=O)c1ccccc1C2=O,AC50,[1],28.2 µM (inconclusive)
same,AC50,[8],12.6 µM (inconclusive)
same,AC50,[3],10 µM (inconclusive)
CC(O)(CS(=O)(=O)c1ccccc1)C(=O)Nc1cccc(C(F)(F)F)c1 (stereo not drawn),AC50,[3],35.5 µM (inconclusive)
CC(=O)c1cccc(Nc2nc(-c3sc(C)nc3C)cs2)c1,CC50,[4],> 50 µM (active)
CCN(Cc1ccccc1)C(c1cccs1)c1nnnn1C1CCCCC1 (stereo not drawn),EC50,[9],3.97 µM (active)
same,EC50,[10],16.3 µM (active)
same,AC50,[11],9.27 µM (active)
Oc1ccc(N2CCN(C(S)=NCCc3ccccc3)CC2)cc1,EC50,[6],> 150 µM (inactive)
same,EC50,[7],0.177 µM (active)
Cc1cc(Cl)ccc1Oc1cccc(C(=O)/C(C#N)=C/N(C)C)c1,CC50,[4],29.1 µM (active)
COc1ccc(-c2cc(C(F)(F)F)n3ncc(C(=O)NCC4CCCO4)c3n2)cc1OC (stereo not drawn),AC50,[1],14.1 µM (inconclusive)
same,AC50,[2],5.01 µM (inconclusive)
same,AC50,[8],3.55 µM (inconclusive)
same,AC50,[3],7.94 µM (inconclusive)
Cc1cccc(Cc2nnc(CCC(=O)N3CCCCC3c3nccs3)o2)c1 (stereo not drawn),EC50,[6],> 160 µM (inactive)
same,EC50,[7],> 38 µM (not active)
CSc1nnc(C)c(/C=C/Nc2ccc(Cl)cc2)n1,CC50,[4],> 50 µM (active)
CN(C)c1ncc2nc(-c3ccccc3)c(=O)n(Cc3cccs3)c2n1,AC50,[8],15.8 µM (inconclusive)
same,AC50,[3],10 µM (inconclusive)
COc1ccc(CCNC(=O)c2ccc3c(c2)N(Cc2ccc(C)cc2)CCS3)cc1OC,CC50,[4],35.9 µM (active)
COc1ccc(N2CCN(Cc3nc4c(c(=O)[nH]c(=O)n4C)n3CCCc3ccccc3)CC2)cc1,AC50,[1],28.2 µM (inconclusive)
same,AC50,[3],39.8 µM (inconclusive)
COC(=O)CSC1=C(C#N)C(c2cccc(F)c2)CC(=O)N1 (stereo not drawn),AC50,[8],39.8 µM (inconclusive)
same,AC50,[3],0.0282 µM (inconclusive)
Fc1ccc(Cn2nnnc2CN2CCC(n3nnc4cc(C(F)(F)F)ccc43)CC2)cc1,CC50,[4],15 µM (active)
COc1ccc(Oc2ncc3nc(C)c(=O)n(-c4ccc(OC)cc4)c3n2)cc1,AC50,[3],39.8 µM (inconclusive)
Cc1oc2c(cc(NS(=O)(=O)c3cccs3)c3ccccc32)c1C(=O)OC(C)C,CC50,[4],20.3 µM (active)
Cn1c(=O)cnc2cnc(Nc3ccccc3)nc21,AC50,[1],7.94 µM (inconclusive)
same,AC50,[8],25.1 µM (inconclusive)
same,AC50,[3],25.1 µM (inconclusive)
Cc1cc2[nH]c(=O)c(=O)[nH]c2cc1S(=O)(=O)N1CCN(c2ccccc2F)CC1,EC50,[6],> 150 µM (inactive)
same,EC50,[7],> 38 µM (not active)
O=C(CCCl)N(Cc1nc(O)c2ccccc2n1)Cc1cccs1,EC50,[6],> 160 µM (inactive)
same,EC50,[7],> 38 µM (not active)
COc1cc2c(cc1OC)C(NC(=O)C(F)(F)F)CNC2=O (stereo not drawn),AC50,[11],> 260 µM (inconclusive)
COCCN=C(S)N1C2CCC1CC(NC(=O)NC13CC4CC(CC(C4)C1)C3)C2 (stereo not drawn),AC50,[1],20 µM (inconclusive)
same,AC50,[3],14.1 µM (inconclusive)
FC(F)(F)c1cnc(NN=C(S)Nc2ccc(Cl)cc2)c(Cl)c1,AC50,[11],3.44 µM (active)
O=NN(CCc1ccncc1)c1ccc(OCc2ccccc2)cc1,AC50,[11],6.05 µM (active)
O=C(O)/C=C\c1c2ccc(=O)c(O)c-2oc2c(O)c(O)ccc12,AC50,[1],3.16 µM (inconclusive)
same,AC50,[3],7.94 µM (inconclusive)
COC(=O)C(CCSC)NC(=O)c1cccc([N+](=O)[O-])c1 (stereo not drawn),AC50,[3],2 µM (inconclusive)
O=C(Nc1ccc(C(=O)Nc2ccccc2Cl)cc1)c1cccnc1,AC50,[11],1.06 µM (active)
O=C(c1cc2c(s1)-c1ccccc1OC2)N1CCC2(CC1)OCCO2,EC50,[6],43.1 µM (active)
same,EC50,[7],2.9 µM (active)
CCOC(=O)CSc1ccc(C(=O)N2CCN(C)CC2)cc1[N+](=O)[O-],EC50,[6],> 160 µM (inactive)
same,EC50,[7],> 38 µM (not active)
O=C(COC(=O)c1cn(-c2ccccc2)nc1-c1ccccc1)c1cccc([N+](=O)[O-])c1,AC50,[11],4.4 µM (active)
CCCCSc1ccc(NC(=O)c2cccnc2)cc1,AC50,[11],8.46 µM (active)
COc1cc(C2C(C#N)=C(N)N(c3ccc(F)cc3)C3=C2S(=O)(=O)CC3)ccc1O (stereo not drawn),EC50,[6],> 160 µM (inactive)
same,EC50,[7],> 38 µM (not active)
CCCn1c(CC)nc([N+](=O)[O-])c1Sc1ccc(F)cc1,EC50,[6],16.3 µM (active)
same,EC50,[7],> 38 µM (not active)
CCOc1ccccc1NC(=O)c1cc(S(=O)(=O)N2CCC3(CC2)OCCO3)ccc1F,EC50,[6],> 160 µM (inactive)
same,EC50,[7],> 38 µM (not active)
CN1CC2([N+](=O)[O-])CC=C(OCCO)C([N+](=O)[O-])(C1)C2 (stereo not drawn),EC50,[6],> 150 µM (inconclusive)
same,EC50,[7],> 38 µM (not active)
COc1c(C)cc(Br)cc1C(=O)Nc1ccccc1N1CCN(C(=O)c2ccccc2)CC1,CC50,[4],31.5 µM (active)
same,EC50,[9],2.52 µM (active)
same,EC50,[10],> 60 µM (not active)
Oc1nc(SCc2ccccc2F)nc2ccccc12,EC50,[6],> 150 µM (inactive)
same,EC50,[7],1.26 µM (active)
Cn1c(=O)cc(OCC(=O)NCc2cccnc2)c2ccccc21,AC50,[2],1.58 µM (inconclusive)
same,AC50,[3],14.1 µM (inconclusive)
Brc1ccc(-c2ncc3ccccn23)cc1,CC50,[4],29.9 µM (active)
N#CCCn1c(=O)c(-c2cc(F)cc(F)c2)nc2cnc(OCc3ccccc3)nc21,AC50,[8],15.8 µM (inconclusive)
same,AC50,[3],3.16 µM (inconclusive)
CCOC(=O)C1(Cc2cccc(Cl)c2)CCCN(C(=O)c2ccc(COC)s2)C1 (stereo not drawn),AC50,[11],> 260 µM (inactive)
C/C(=N\N=C(/N)SC1CC(=O)N(c2cccc(Cl)c2)C1=O)c1cccs1 (stereo not drawn),CC50,[4],19.4 µM (active)
O=C(N/N=C/c1ccc(Sc2nc3ccccc3s2)c([N+](=O)[O-])c1)c1ccccn1,AC50,[1],7.08 µM (inconclusive)
same,AC50,[8],3.55 µM (inconclusive)
same,AC50,[3],0.00562 µM (inconclusive)
O=c1cc(-c2ccccc2)c2ccc(O)cc2o1,EC50,[6],> 160 µM (inconclusive)
same,EC50,[5],117 µM (active)
same,EC50,[7],2.12 µM (active)
NS(=O)(=O)c1cc2c(cc1Cl)N=C(CSCc1ccccc1)NS2(=O)=O [BENZTHIAZIDE],AC50,[3],3.98 µM (inconclusive)
C[C@]12CC[C@@H]3c4ccc(O)cc4CC[C@H]3[C@@H]1CCC2=O [ESTRONE],CC50,[4],33 µM (active)
C=C1C[C@H]2[C@@H]3C=C(C)C4=CC(=O)CC[C@]4(C)[C@H]3CC[C@]2(C)[C@@]1(OC(C)=O)C(C)=O [MELENGESTROL ACETATE],CC50,[4],26.5 µM (active)
Cc1cccc(N(C)C(=S)Oc2ccc3ccccc3c2)c1 [TOLNAFTATE],AC50,[3],1.26 µM (inconclusive)
